# Assay results taken from US20020035058A1, “Isopentenyl pyrophosphate isomerase (IPI) and/or prenyl transferase inhibitors” (The University of Sheffield, priority 1996, published 2002).
# Like-named read-outs stand apart in the source and are kept apart here.
# Columns and labels:
# [1] = target: IPI (IPP isomerase) (Homo sapiens, UniProt Q13907); assay: Inhibition of IPI (IPP isomerase) by bisphosphonates; format: biochemical; details: concentration required to inhibit enzyme activity by 50%
# [2] = tested on: J774 macrophages; assay: Loss of total cell viability, MTT reduction; format: cell-based; details: for IC50: read-out: concentration causing 50% loss of total cell viability
# [3] = tested on: protein prenylation in J774 cells; assay: Protein prenylation: incorporation of mevalonate into proteins; format: cell-based; details: for incorporation of radiolabel (mevalonate) into protein bands: 100 μM, 24 h labelling period
# [4] = tested on: Ras; assay: Immunoprecipitation of Ras: farnesylation of Ras; format: cell-based; details: 41 h
# [5] = tested on: Rab6; assay: Immunoprecipitation of Rab6: geranylgeranylation of Rab6; format: cell-based; details: 41 h
# [6] = target: T1, squalene synthase (Rattus norvegicus, UniProt Q02769); details: cited from earlier work
# T1 sequence (Q02769 1-416): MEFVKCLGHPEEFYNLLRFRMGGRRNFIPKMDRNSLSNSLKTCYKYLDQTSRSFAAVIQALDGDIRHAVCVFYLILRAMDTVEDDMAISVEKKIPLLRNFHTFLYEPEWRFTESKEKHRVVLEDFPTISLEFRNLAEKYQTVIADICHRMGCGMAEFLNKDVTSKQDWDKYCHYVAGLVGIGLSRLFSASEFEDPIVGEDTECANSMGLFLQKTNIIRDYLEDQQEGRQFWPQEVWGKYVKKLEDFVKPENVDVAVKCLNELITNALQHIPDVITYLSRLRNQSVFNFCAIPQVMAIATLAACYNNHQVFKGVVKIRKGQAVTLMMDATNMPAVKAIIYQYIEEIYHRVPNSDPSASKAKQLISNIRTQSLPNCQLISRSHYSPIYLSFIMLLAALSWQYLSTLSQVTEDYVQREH
# [7] = tested on: J774 macrophages; assay: Assessment of apoptosis in J774 macrophages (nuclear morphology, DNA fragmentation); format: cell-based; details: 10-100 μM
# IPI (IPP isomerase), sequence (Q13907 whole entry): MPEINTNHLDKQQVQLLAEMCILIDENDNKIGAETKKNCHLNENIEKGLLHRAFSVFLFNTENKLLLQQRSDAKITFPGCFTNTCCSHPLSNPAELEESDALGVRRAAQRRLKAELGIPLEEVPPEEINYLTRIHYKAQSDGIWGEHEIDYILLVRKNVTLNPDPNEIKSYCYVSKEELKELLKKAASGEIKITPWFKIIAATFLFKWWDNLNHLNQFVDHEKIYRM
structure (smiles),measurement,setting,value
"NCCCC(O)(P(=O)(O)O)P(=O)(O)O [ALENDRONATE, alendronate]",IC50,[1],0.075 µM
same,apoptosis and loss of cell viability with FPP or GGPP co-incubation,[2]; 100 μM alendronate + 200 μM FPP or GGPP,could be partially inhibited
same,IC50,"[2]; Mus musculus, J774 cells, after 48 h",~30 µM
same,incorporation of radiolabel (mevalonate) into protein bands,[3],markedly reduced
same,farnesylated form of Ras after immunoprecipitation,[4]; 100 μM,barely detectable
same,geranylgeranylated form of Rab6 after immunoprecipitation,[5]; 10 μM,barely detectable
same,inhibition of squalene synthase,[6],not
"CCCCCN(C)CCC(O)(P(=O)(O)O)P(=O)(O)O [IBANDRONATE, ibandronate]",IC50,[1],0.035 µM
same,incorporation of radiolabel (mevalonate) into protein bands,[3],markedly reduced
same,inhibition of squalene synthase,[6],potent inhibitors
"O=P(O)(O)C(O)(Cc1cccnc1)P(=O)(O)O [RISEDRONATE, risedronate]",IC50,[1],0.022 µM
same,IC50,"[2]; Mus musculus, J774, 48 h",~3 µM
O=P(O)(O)C(NC1CCCCCC1)P(=O)(O)O [YM175],IC50,[1],0.035 µM
same,incorporation of radiolabel (mevalonate) into protein bands,[3],inhibited even more effectively
same,inhibition of squalene synthase,[6],potent inhibitors
O=P(O)(O)C(Cl)(Cl)P(=O)(O)O [clodronate],reduction in viability of J774 cells,[2]; 750 μM,substantial reduction
same,protein prenylation and synthesis of radiolabelled dye-front compounds,[3]; 750 μM,did not affect
CC[C@H](C)C(=O)O[C@H]1CCC=C2C=C[C@H](C)[C@H](CC[C@@H]3C[C@@H](O)CC(=O)O3)[C@H]21 [mevastatin],loss of cell viability with cycloheximide co-incubation,"[2]; 15 μM mevastatin + 0.5 μM cycloheximide, 48 h",could be prevented
same,IC50,"[2]; J774 cells, after 48 h",~10 µM
same,"loss of cell viability and apoptosis with FPP, GGPP or mevalonic acid lactone co-incubation","[2]; mevastatin + 200 μM FPP, GGPP or mevalonic acid lactone",prevented (at least partially)
same,proportion of J774 cells with features typical of apoptosis,[7],dose-dependent increase
same,farnesylated form of Ras after immunoprecipitation,[4]; 15 μM,Identical results
same,geranylgeranylated form of Rab6 after immunoprecipitation,[5]; 11 μM,barely detectable
